Assay results reported in patent US8390681B1, “Computer assisted semen analyzer to analyze digital video clips received from a remote location” (LifeCell Dx, Inc., priority 2008, dated 2013).

Experiments:
[1] = system: fertilization capacity; assay: Fertilization capacity, concentration dependence of cannabinoids; conditions: higher concentrations
[2] = system: mouse sperm; assay: Mouse sperm pre-treated with drug, then artificial insemination into the mouse uterus; fertilization and embryo development scored; format: in vivo
Source text: Studies show the cannabinoid implications in vivo in the mouse model. In separate experiments, mouse sperm are pre-treated with Meth-anandamide or AM-1346 and then the mouse sperm are inseminated into the mouse uterus (artificial insemination).
Each egg could be scored as 1-cell, 2-cell, 3-4 cell, 5-8 cell, morula, blastocysts or degenerated. Brief exposure of the sperm to the drug before insemination produces significant inhibition of 5 parameters. Compared to Control, the treated animals ovulate fewer ova (p<0.01, t-test). […] By Day 2, treatment produces a lower % of 2-cell eggs—again, fewer eggs are cleaving. […] The drug severely impairs fertilization and embryo development.

[3] = system: human sperm; assay: Human sperm vigorous swimming (Hyperactivation, computer-tracking); format: cell-based
Source text: Fertilization assays include changes in human sperm vigorous swimming (Hyperactivation, computer-tracking), changes in % moving, and changes in the ability of drug-treated sperm to complete the acrosome reaction, and ability to bind to the human egg cover (Hemizona assay).

[4] = sperm pre-treated with 100 nM, Day 1
[5] = sperm pre-treated with 100 nM, Day 3

| Structure (SMILES) | effect on fertilization capacity [1] | Number embryos per female ([2]; sperm pre-treated with 100 nM before insemination) | % ova as 1-cell on Day 1 [2, 4] [%] | Number of 2-cells on Day 1 [2, 4] | % embryos >2-cell on Day 3 [2, 5] [%] | % embryos degenerated on Day 3 [2, 5] [%] | vigorous swimming of human sperm [3] |
| --- | --- | --- | --- | --- | --- | --- | --- |
| CCCCC/C=C\C/C=C\C/C=C\C/C=C\CCCC(=O)NCCO [Anandamide, arachidonoyl-ethanolamide] | trends towards reduced fertilization capacity |  |  |  |  |  |  |
| CCCCC/C=C\C/C=C\C/C=C\C/C=C\CCCC(=O)N[C@H](C)CO [Methanandamide, R-methanandamide] | biphasic effect: Higher concentrations produce inhibition | 4.3 ± 0.7 | 91.3 | 0.6 ± 0.2 | 25.0 | 44.2 |  |
| CCCCC/C=C\C/C=C\C/C=C\C/C=C\CCCC(=O)NCc1ccoc1 [UCM] |  |  |  |  |  |  | blocks |
